From patent US9144595B2, “APLs for treating arthritis” (University of Tennessee Research Foundation, priority 2009, dated 2015)
Where “and” joins values, the source holds several entries; their conditions need not be identical. Equal values may be shown once. Entries after “also recorded” stand apart in the source; their conditions may differ.

How the values were obtained:
[1] = tested on: RA PBMC; assay: APL A12 inhibition of IFNγ production by α1(II)-stimulated RA PBMC; assay type: cell-based, human; conditions: for IFNy Stimulation Index: 144 h
Procedure: We assessed the ability of APL A12 added to cultures of PBMC to affect production of IFNγ and other Th1 and Th2 cytokines by the cultured PBMC stimulated with α1(II) from 18 RA patients, 16 of whom had known HLA DR B1 haplotypes. 16 of these patients were taking methothexate, 10 NSAIDS and 12 anti-TNF agents. One patient was taking Arava. Isolated PBMC were resuspended in Dulbecco's minimal essential medium containing penicillin (100 U/ml), streptomycin (100 μg/ml), 9% fetal calf serum (FCS), and non-essential amino acids thereafter referred to as “Complete Medium” at a concentration of 4×10^6 cells/ml. Aliquots (0.5 ml) of the cell suspension were dispensed into wells of 48 well tissue culture plates (NUNC, Roskilde, Denmark).

[2] = tested on: DR1 Transgenic mice; assay: Acute toxicity study of HC Peptide 1 in DR1 transgenic mice; assay type: in vivo, mouse
[3] = tested on: Zap-70; assay: Zap-70 phosphorylation in CD4+ T cells of DR1/TCR transgenic mice (flow cytometry); assay type: cell-based, mouse; conditions: APCs prepulsed with peptide; data not shown
[4] = tested on: RA CD4+ T cells; assay: Intracellular IFNγ and IL-17 in CD4+ T cells of CII-stimulated RA PBMC (flow cytometry); assay type: cell-based, human; conditions: A12 10 μg/ml co-incubated with CII 50 μg/ml, 5 days; one RA patient; FIG. 2
Excerpt: We assessed the effect of APL A12 added to cultures of RA PBMC stimulated with α1(II) on CD4^+ T cells expression of IFNγ and IL-17 as shown in FIG. 2.
The flow use an IFNγ scale on y-axis 295 and IL-17 on x-axis 290, 291, 292, 293, 294 (log scale). The results of the flow are shown for Control 210 including IFNγ+IL-17 flow 270 and IFNγ Control flow 285. The results of the flow are shown for CII+A12 220 including IFNγ+IL-17 flow 265 and IFNγ Control flow 280. The results of the flow are shown for CII 230 including IFNγ+IL-17 flow 260 and IFNγ Control flow 275. Columns 240, 250 represent IFNγ+IL-17 flow and IFNγ Control flow, respectively. Peripheral blood lymphocytes were placed in culture (2×10^6/well, 24 well plate) and stimulated with either CII alone (50 μg/ml), CII+A12 peptide (10 μg/ml), or PBS for 5 days. […] Cells were then collected and analyzed by flow cytometry using fluorochrome-labeled antibodies specific for CD4, CD8, CD69, IL-17 and IFNγ. […] Data are based on a minimum of 75,000 events analyzed. The IFNγ Controls (right panels) are based on the fluorescence minus one (FMO) approach whereby the antibody of IFNγ is omitted from these samples to make sure that no fluorochrome was spilling over into the IFNγ detector.

[5] = tested on: TCR-ζ chain; assay: Phosphorylation of the TCR-ζ chain in CII-specific CD4+ T cells; assay type: cell-based, mouse; conditions: CD4+ T cells cultured with peptide-pulsed APCs; FIG. 4
Procedure: Purified CD4+ cells from the DR1-TCR tg mice are an excellent source of cells to explore the intracellular signaling pathways induced by either A2 or A12. In preliminary experiments we precipitated proteins with an antibody specific for CD3-ζ (34) to examine for the presence of phosphorylated proteins.
CD4+T cells were cultured with APC's pulsed with the wild-type peptide (WT), A12, or no antigen (No Ag). Proteins were immunoprecipitated with […] of affinity-purified anti-TCR-ζ antibody. The immunoprecipitates were separated by SDS-12%-PAGE, and transferred to nitrocellulose membrane. The membrane was blotted with monoclonal anti-phosphotyrosine antibody (α-pTyr). The positions of the phosphorylated-TCR-ζ are shown by arrows 410, 415. The 21 kDa and 23 kDa bands were not detected in immunoprecipitates from a B cell lymphoma line (data not shown). Bands for the total amount of zeta protein were identical for all three columns. Arrows 410 and 415 are shown denoting 21 kDa and 23 kDa bands, respectively. […] The bands are for No Ag 440, Wt 445, and A12 450. The bands are shown: Wt 425, No Ag 435, A12 430. Bands for zeta protein are shown: No Ag 455, Wt 460, and A12 465.

[6] = tested on: splenocytes of DR1 transgenic mice; assay: Oral APL A12: IFNγ production by cultured splenocytes of DR1 transgenic mice; assay type: in vivo, mouse

For LGPKGQTGEBGIAGAKGDQGPKGEBGPA [APL A12], the “IFNγ production by RA PBMC” value ([1]; APL A12 alone, without α1(II), data not shown) was “no change from PBS control”, the “RA patients who responded to APL A12 in vitro” value ([1]; NIH oral CII study) was 50% and the “patients with IFNγ production down-regulated by ≧50%” value ([1]; patients with the RA susceptibility shared epitope) was 7 of 10. The “patients with IFNγ production down-regulated by ≧50%” value ([1]; patients without the shared epitopes) was 2 of 6, the “IFNy Stimulation Index” value ([1]; α1(II) + APL A12 1 μg/ml, individual patients with No Shared Epitope) was 49 and 45 and 1120 and 928 and 586 and 75 and the “IFNy Stimulation Index” value ([1]; α1(II) + APL A12 1 μg/ml, individual patients with Shared Epitope) was 139 and 49 and 742 and 908 and 3190 and 85 and 203 and −65 and −74. For the same sequence, the “IFNy Stimulation Index” value ([1]; α1(II) + APL A12 1 μg/ml, individual patients, HLA Unknown) was 42 and 228, the “IFNy Stimulation Index” value ([1]; α1(II) + APL A12 10 μg/ml, individual patients with No Shared Epitope) was 12 and −3 and 1220 and 807 and 479 and 91 and the “IFNy Stimulation Index” value ([1]; α1(II) + APL A12 10 μg/ml, individual patients with Shared Epitope) was 291 and 68 and 37 and 1220 and 644 and 2111 and 93 and 110 and −54 and −66. For the same sequence, the “IFNy Stimulation Index” value ([1]; α1(II) + APL A12 10 μg/ml, individual patients, HLA Unknown) was 73 and 180, the “IFNy Stimulation Index” value ([1]; α1(II) + APL A12 25 μg/ml, individual patients with No Shared Epitope) was 16 and 50 and 934 and 778 and 357 and 106 and the “IFNy Stimulation Index” value ([1]; α1(II) + APL A12 25 μg/ml, individual patients with Shared Epitope) was 15 and 113 and 123 and 493 and 1350 and 2620 and 154 and 83 and −24 and 1. The “IFNy Stimulation Index” value ([1]; α1(II) + APL A12 25 μg/ml, individual patients, HLA Unknown) was 121 and 214, the “complete blood counts (CBC)” value ([2]; after 6 days gavage with 100× the human dose vs IV saline) was “similar” and the “Histologic assessment of internal organs (livers, spleens, kidneys, hearts, lungs)” value ([2]; gavaged for six days with 100× human dose vs IV saline, listed as HC Peptide 1) was “no difference; also recorded: did not reveal abnormalities”. The “clinical signs of illness, changes in complete blood counts or liver and renal chemistries” value ([2]; oral, 100× the proposed human dose daily for six days) was “not associated”, the “Changes in body weight” value ([2]; over the six days gavaged with 100× the human dose, vs IV saline) was “similar” and the Zap-70 phosphorylation [3] was “little effect”. The “decrease in the number of IFNγ-producing T cells” value [4] was 75%, the “reduction in IL-17 producing T cells” value [4] was 42% and the TCR-ζ chain phosphorylation [5] was “did not significantly activate”. The “IFNγ Levels in Splenocyte Culture” value ([6]; mice gavaged with 50 μg APL A12 8 times over 2 weeks, splenocytes cultured with PBS) was 2 ± 3 pg/mL, the “IFNγ Levels in Splenocyte Culture” value ([6]; mice gavaged with 50 μg APL A12, splenocytes cultured with APL A12 50 μg/ml) was 5 ± 10 pg/mL and the “IFNγ Levels in Splenocyte Culture” value ([6]; mice gavaged with 50 μg APL A12, splenocytes cultured with CII263-270 50 μg/ml) was 12 ± 20 pg/mL. The “IFNγ Levels in Splenocyte Culture” value ([6]; mice gavaged with PBS, splenocytes cultured with APL A12 50 μg/ml) was 65 ± 52 pg/mL.
